Measurements taken from PubChem BioAssay AID179 (DTP/NCI, 2004).
The source made the active and inactive calls.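 Rule for the calls: active = compounds giving half or more protection of infected cells from virus-caused growth loss, again on retest; inactive = the rest.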

Test system: CEM cells HIV-1 protection, formazan growth assay
Assay: NCI AIDS Antiviral Assay
Conditions: for IC50: measured here: growth of uninfected CEM cells
Method: The ability of compounds to protect human CEM cells from HIV-1 infection is measured as a screen for new compounds capable of inhibiting the HIV virus. Five concentrations of drug were tested on uninfected and infected cells and cell growth was measured using a soluble formazan assay. […] Compounds that provided at least 50% protection were retested. Compounds that provided at least 50% protection on retest were listed as moderately active. Compounds that reproducibly provided 100% protection were listed as confirmed active. […] Note that the inability to provide protection could be due to toxicity.

| SMILES | EC50 | IC50 | outcome |
| --- | --- | --- | --- |
| N#CC1Nc2ccccc2[C@@H](O)C1O (some centres not stated) | > 1320 µM | 240 µM | – |
| COP(=O)(OC)C(NC(=O)C(F)(F)F)(c1ccccc1)C(F)(F)F (configuration not stated) | > 200 µM | > 200 µM | – |
| CC1=CC(C)C(=O)N(C)C(C)=C1 (configuration not stated) | > 1510 µM | 457 µM | – |
| O=C1c2ccccc2C(=O)C1(Br)C(Br)c1ccccc1 (configuration not stated) | > 200 µM | 2.57 µM | – |
| c1ccc(N2N=NC3CCCC32N2CCCCC2)cc1 (configuration not stated) | > 200 µM | 110 µM | – |
| C#CCOCn1cnc2ncnc(N)c21 | > 1230 µM | > 1230 µM | – |
| CCCN(CCC)C(=S)N/N=C/c1ccccn1 | > 2 µM | 0.0126 µM | – |
| N#CC(NNC(=O)Cc1ccccc1)c1ccccc1O (configuration not stated) | > 129 µM | 17 µM | – |
| COc1cccc(N2C(=O)[C@H]3CC(C)c4c([nH]c5ccccc45)[C@H]3C2=O)c1 (some centres not stated) | > 35.5 µM | > 35.5 µM | – |
| CC(C)(C)c1cc(C2c3cc4c(cc3OC(O)(CO)C2C(=O)O)OCO4)cc(C(C)(C)C)c1O (configuration not stated) (tested in a mixture with another compound) | – | – | inactive |
| CC(=O)C(N=Nc1ncn[nH]1)C(C)=O | > 200 µM | 170 µM | – |
| C/C(=N\NS(=O)(=O)c1ccc(C)cc1)c1ccc[n+]([O-])n1 | – | – | inactive |
| Cc1ccc(-c2n[nH]c(=O)[nH]2)cc1[N+](=O)[O-] | > 200 µM | > 200 µM | – |
| S=C(S)N1CCOCC1 | > 200 µM | 0.724 µM | – |
| CCC1(CC)COP(=S)([S][Sb]([O]C(C)=O)[S]P2(=S)OCC(CC)(CC)CO2)OC1 | > 57.5 µM | 9.33 µM | – |
| CCNCC(O)COc1ccc2c(c1)[n+]([O-])nc(N)[n+]2[O-] (configuration not stated) | > 200 µM | 13.8 µM | – |
| CCCCCCOC(=O)c1[nH]c(=O)n(CCCCCC)c(=O)c1N | > 200 µM | 151 µM | – |
| CN1N=C(c2ccncc2)OC1c1cccc(F)c1 (configuration not stated) | > 200 µM | 79.4 µM | – |
| NC(=O)c1nnc2cc(F)ccc2c1N | > 200 µM | 74.1 µM | – |
| CCN(Cc1cccc(S(=O)(=O)[O-])c1)c1ccc(C(=C2C=CC(=[N+](CC)Cc3cccc(S(=O)(=O)O)c3)C=C2)c2ccccc2S(=O)(=O)O)cc1 | – | – | inactive |
| Cc1nc2ccc(N=Nc3c(O)ccc4ccccc34)cc2[nH]1 | > 61.7 µM | 55 µM | – |
| COC1(C)C(=O)N2C1N(C(=O)OC(C)(C)C)CC2(C)C (configuration not stated) | > 380 µM | > 380 µM | – |

| SMILES | EC50 | IC50 | outcome |
| --- | --- | --- | --- |
| CC(=O)Oc1c(-c2ccccc2)[nH]c2cc([N+](=O)[O-])c(/C(Cl)=C/c3ccccc3)cc12 | > 6.31 µM | > 6.31 µM | – |
| COC(=O)C1=C(C)C=C(N2CCOCC2)C(C(=O)OC)C1c1ccccc1 (configuration not stated) | > 200 µM | > 200 µM | – |
| COc1ccccc1/C=C1\NC(=S)N(/C=C2\C(=O)Oc3ccccc3C2=O)C1=O | > 200 µM | 81.3 µM | – |
| Cc1cn(C2CC(O[Si](C)(C)C(C)(C)C)C(/C=[N+](\C)[O-])O2)c(=O)[nH]c1=O (configuration not stated) | > 200 µM | 37.2 µM | – |
| Cc1cccc(CP(Cc2cccc(C)c2)CC2(Cp3c4ccccc4c4ccccc43)COC2)c1 | > 2 µM | 0.257 µM | – |
| CCN(CC)CCOC(=O)c1cc2ccccc2[nH]1 | > 200 µM | > 200 µM | – |
| CCOC(=O)[C@H](O)[C@@H](O)C(=O)NCc1ccc(C(=O)c2ccccc2)cc1 | > 200 µM | > 200 µM | – |
| c1ccc(N2CCN(c3ccccn3)CC2)nc1 | > 100 µM | > 100 µM | – |
| O=C1NC(N2CCOCC2)=N/C1=C\c1ccc(O)cc1 | > 200 µM | 105 µM | – |
| C=CCCNCC/C=C\[Si](C)(C)C | > 1260 µM | 1230 µM | – |
| N#Cc1c(C#N)c(-c2ccccc2)n(Cc2ccccc2)c1N | > 200 µM | > 200 µM | – |
| Cc1nc2ccccc2c(=O)n1NC(=S)Nc1ccc(Cl)cc1[N+](=O)[O-] | > 93.3 µM | > 93.3 µM | – |
| O=[N+]([O-])c1ccc(NS(=O)(=O)C(F)(F)F)cc1 | > 200 µM | > 200 µM | – |
| COc1ccccc1C1c2cc3c(cc2OC(O)(CO)C1C(=O)O)OCO3 (configuration not stated) (tested in a mixture with another compound) | – | – | inactive |
| O=c1c2c([nH]n1-c1ccccc1)-c1ccccc1CS2 | > 204 µM | 135 µM | – |
| CC1(C)CCc2ccc(OCCC#N)cc2O1 | – | – | inactive |
| CC[C@]1(Cc2ccc(OC)c(OC)c2)C=[N+]([O-])O[C@H](OC2CCCC2(c2ccccc2)c2ccccc2)[C@@H]1OC(=O)C(C)(C)C (some centres not stated) | > 200 µM | 1.17 µM | – |
| COc1ccc2c(c1)N(CC(C)CN(C)C)c1ccccc1S2 (configuration not stated) | > 200 µM | > 200 µM | – |
| Cc1cc([N+](=O)[O-])ccc1N=NC(=O)NNc1ccc([N+](=O)[O-])cc1C | > 200 µM | 33.9 µM | – |
| Cc1ccc(NC(=O)CC2C(=O)Nc3ccccc3S2(=O)=O)cc1C (configuration not stated) | > 10.5 µM | > 10.5 µM | – |
| CC1=C(C(=O)CC(=O)C(=O)Nc2ccccc2C(F)(F)F)Sc2ccccc2N1 | – | – | inactive |
| O=[N+]([O-])c1ccc(-c2csc3nc(-c4ccccc4)nn23)cc1 | > 200 µM | > 200 µM | – |
